Tests used:
Danio rerio embryo [1] = details: exposure time: 4 dpf
Procedure: (§1)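 Zebrafish embryos (UFZ-OBI strain) were exposed from 2 hpf for 48 h (2 dpf) or 96 h (4 dpf) at 28 °C; spontaneous tail coiling was scored at 25 hpf. Morphological features from automated image analysis (FishInspector), heart rate and locomotor response were fitted with drc models. Quantal endpoints were dichotomised at 2.5 SD from controls and fitted with a log-logistic model; heart rate, pigmentation and STC were normalised to the replicate control mean. Betamethasone was tested as betamethasone dipropionate, diflorasone as diflorasone diacetate.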

Danio rerio embryo [2] = tested on: Danio rerio embryo
Procedure: as §1

Danio rerio embryo [3] = assay: EC50 Eye size_Decrease
Procedure: as §1

Danio rerio embryo [4] = assay: EC50 Curvature_Increase
Procedure: as §1

Danio rerio embryo [5] = assay: EC50 Body length_Decrease; details: exposure time: 2 dpf
Procedure: as §1

Danio rerio embryo [6] = assay: EC50 Bladder size_Decrease; details: exposure time: 4 dpf
Procedure: as §1

Danio rerio embryo [7] = assay: EC50 Pericard size_Increase; details: exposure time: 4 dpf
Procedure: as §1

Danio rerio embryo [8] = assay: EC50 Head trunk angle_Decrease; details: exposure time: 2 dpf
Procedure: as §1

Danio rerio embryo [9] = assay: EC50 Eye-jaw distance_Decrease; details: exposure time: 4 dpf
Procedure: as §1

Danio rerio embryo [10] = assay: EC50 Otolith-eye distance_Decrease; details: exposure time: 4 dpf
Procedure: as §1

Danio rerio embryo [11] = assay: EC10 Lack of SB; higher = less potent; details: exposure time: 4 dpf
Procedure: as §1

Danio rerio embryo [12] = assay: EC20 Lack of SB; higher = less potent; details: exposure time: 4 dpf
Procedure: as §1

Danio rerio embryo [13] = assay: EC20 Any effect; higher = less potent
Procedure: as §1

Danio rerio embryo [14] = assay: EC10 Any effect; higher = less potent
Procedure: as §1

Danio rerio embryo [15] = assay: EC20 Eye size_Decrease; higher = less potent
Procedure: as §1

Danio rerio embryo [16] = assay: EC10 Eye size_Decrease; higher = less potent
Procedure: as §1

Danio rerio embryo [17] = assay: EC10 Curvature_Increase; higher = less potent
Procedure: as §1

Danio rerio embryo [18] = assay: EC20 Curvature_Increase; higher = less potent
Procedure: as §1

Danio rerio embryo [19] = assay: EC20 Body length_Decrease; higher = less potent; details: exposure time: 2 dpf
Procedure: as §1

Danio rerio embryo [20] = assay: EC10 Body length_Decrease; higher = less potent; details: exposure time: 2 dpf
Procedure: as §1

Danio rerio embryo [21] = assay: EC10 Bladder size_Decrease; higher = less potent; details: exposure time: 4 dpf
Procedure: as §1

Danio rerio embryo [22] = assay: EC20 Bladder size_Decrease; higher = less potent; details: exposure time: 4 dpf
Procedure: as §1

Danio rerio embryo [23] = assay: EC20 Pericard size_Increase; higher = less potent; details: exposure time: 4 dpf
Procedure: as §1

Danio rerio embryo [24] = assay: EC10 Pericard size_Increase; higher = less potent; details: exposure time: 4 dpf
Procedure: as §1

Danio rerio embryo [25] = assay: EC10 Head trunk angle_Decrease; higher = less potent; details: exposure time: 2 dpf
Procedure: as §1

Danio rerio embryo [26] = assay: EC20 Eye-jaw distance_Decrease; higher = less potent; details: exposure time: 4 dpf
Procedure: as §1

Danio rerio embryo [27] = assay: EC10 Eye-jaw distance_Decrease; higher = less potent; details: exposure time: 4 dpf
Procedure: as §1

Danio rerio embryo [28] = assay: EC20 Head trunk angle_Decrease; higher = less potent; details: exposure time: 2 dpf
Procedure: as §1

Danio rerio embryo [29] = assay: EC20 Otolith-eye distance_Decrease; higher = less potent; details: exposure time: 4 dpf
Procedure: as §1

Danio rerio embryo [30] = assay: EC10 Otolith-eye distance_Decrease; higher = less potent; details: exposure time: 4 dpf
Procedure: as §1

Danio rerio embryo [31] = assay: spontaneous tail coiling frequency (coils/min/embryo); higher = more spontaneous movement; details: 25 hpf
Procedure: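 Spontaneous tail coilings of zebrafish embryos exposed from 2 hpf were recorded at 24-25 hpf in 1-min videos and detected by a KNIME workflow from grey-value variance. Betamethasone was tested as the dipropionate, diflorasone as the diacetate.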

COC(=O)Nc1nc2cc(Sc3ccccc3)ccc2[nH]1 [Fenbendazole]
Details | EC10 Bladder size Decrease [µM] | EC10 Body length Decrease [µM] | EC10 Eye-jaw distance Decrease [µM] | EC10 Head trunk angle Decrease [µM] | EC10 Lack of SB [µM] | EC10 Otolith-eye distance Decrease [µM] | EC10 Pericard size Increase [µM] | EC20 Bladder size Decrease [µM] | EC20 Body length Decrease [µM] | EC20 Eye-jaw distance Decrease [µM] | EC20 Head trunk angle Decrease [µM] | EC20 Lack of SB [µM] | EC20 Otolith-eye distance Decrease [µM] | EC20 Pericard size Increase [µM] | EC50 Bladder size Decrease [nM] | EC50 Body length Decrease [nM] | EC50 Eye-jaw distance Decrease [nM] | EC50 Head trunk angle Decrease [nM] | EC50 Lack of SB [nM] | EC50 Otolith-eye distance Decrease [nM] | EC50 Pericard size Increase [nM]
Danio rerio embryo [1] | – | – | – | – | – | – | – | – | – | – | – | – | – | – | – | – | – | – | 50 | – | –
Danio rerio embryo [5] | – | – | – | – | – | – | – | – | – | – | – | – | – | – | – | 45 | – | – | – | – | –
Danio rerio embryo [6] | – | – | – | – | – | – | – | – | – | – | – | – | – | – | 49 | – | – | – | – | – | –
Danio rerio embryo [7] | – | – | – | – | – | – | – | – | – | – | – | – | – | – | – | – | – | – | – | – | 85
Danio rerio embryo [8] | – | – | – | – | – | – | – | – | – | – | – | – | – | – | – | – | – | 41 | – | – | –
Danio rerio embryo [9] | – | – | – | – | – | – | – | – | – | – | – | – | – | – | – | – | 81 | – | – | – | –
Danio rerio embryo [10] | – | – | – | – | – | – | – | – | – | – | – | – | – | – | – | – | – | – | – | 89 | –
Danio rerio embryo [11] | – | – | – | – | 0.046 | – | – | – | – | – | – | – | – | – | – | – | – | – | – | – | –
Danio rerio embryo [12] | – | – | – | – | – | – | – | – | – | – | – | 0.047 | – | – | – | – | – | – | – | – | –
Danio rerio embryo [19] | – | – | – | – | – | – | – | – | 0.035 | – | – | – | – | – | – | – | – | – | – | – | –
Danio rerio embryo [20] | – | 0.03 | – | – | – | – | – | – | – | – | – | – | – | – | – | – | – | – | – | – | –
Danio rerio embryo [21] | 0.045 | – | – | – | – | – | – | – | – | – | – | – | – | – | – | – | – | – | – | – | –
Danio rerio embryo [22] | – | – | – | – | – | – | – | 0.047 | – | – | – | – | – | – | – | – | – | – | – | – | –
Danio rerio embryo [23] | – | – | – | – | – | – | – | – | – | – | – | – | – | 0.073 | – | – | – | – | – | – | –
Danio rerio embryo [24] | – | – | – | – | – | – | 0.067 | – | – | – | – | – | – | – | – | – | – | – | – | – | –
Danio rerio embryo [25] | – | – | – | 0.037 | – | – | – | – | – | – | – | – | – | – | – | – | – | – | – | – | –
Danio rerio embryo [26] | – | – | – | – | – | – | – | – | – | 0.062 | – | – | – | – | – | – | – | – | – | – | –
Danio rerio embryo [27] | – | – | 0.053 | – | – | – | – | – | – | – | – | – | – | – | – | – | – | – | – | – | –
Danio rerio embryo [28] | – | – | – | – | – | – | – | – | – | – | 0.038 | – | – | – | – | – | – | – | – | – | –
Danio rerio embryo [29] | – | – | – | – | – | – | – | – | – | – | – | – | 0.077 | – | – | – | – | – | – | – | –
Danio rerio embryo [30] | – | – | – | – | – | 0.07 | – | – | – | – | – | – | – | – | – | – | – | – | – | – | –

Details | EC10 Any effect [µM] | EC10 Curvature Increase [µM] | EC10 Eye size Decrease [µM] | EC20 Any effect [µM] | EC20 Curvature Increase [µM] | EC20 Eye size Decrease [µM] | EC50 Any effect [nM] | EC50 Curvature Increase [nM] | EC50 Eye size Decrease [nM] | spontaneous tail coiling frequency
Danio rerio embryo [2], exposure time: 2 dpf | – | – | – | – | – | – | 32 | – | – | –
Danio rerio embryo [2], exposure time: 4 dpf | – | – | – | – | – | – | 70 | – | – | –
Danio rerio embryo [3], exposure time: 2 dpf | – | – | – | – | – | – | – | – | 51 | –
Danio rerio embryo [3], exposure time: 4 dpf | – | – | – | – | – | – | – | – | 82 | –
Danio rerio embryo [4], exposure time: 2 dpf | – | – | – | – | – | – | – | 38 | – | –
Danio rerio embryo [4], exposure time: 4 dpf | – | – | – | – | – | – | – | 82 | – | –
Danio rerio embryo [13], exposure time: 2 dpf | – | – | – | 0.019 | – | – | – | – | – | –
Danio rerio embryo [13], exposure time: 4 dpf | – | – | – | 0.056 | – | – | – | – | – | –
Danio rerio embryo [14], exposure time: 2 dpf | 0.014 | – | – | – | – | – | – | – | – | –
Danio rerio embryo [14], exposure time: 4 dpf | 0.049 | – | – | – | – | – | – | – | – | –
Danio rerio embryo [15], exposure time: 2 dpf | – | – | – | – | – | 0.037 | – | – | – | –
Danio rerio embryo [15], exposure time: 4 dpf | – | – | – | – | – | 0.07 | – | – | – | –
Danio rerio embryo [16], exposure time: 2 dpf | – | – | 0.031 | – | – | – | – | – | – | –
Danio rerio embryo [16], exposure time: 4 dpf | – | – | 0.064 | – | – | – | – | – | – | –
Danio rerio embryo [17], exposure time: 2 dpf | – | 0.022 | – | – | – | – | – | – | – | –
Danio rerio embryo [17], exposure time: 4 dpf | – | 0.062 | – | – | – | – | – | – | – | –
Danio rerio embryo [18], exposure time: 2 dpf | – | – | – | – | 0.027 | – | – | – | – | –
Danio rerio embryo [18], exposure time: 4 dpf | – | – | – | – | 0.068 | – | – | – | – | –
Danio rerio embryo [31], 0.013 µM | – | – | – | – | – | – | – | – | – | 0.94
Danio rerio embryo [31], 0.017 µM | – | – | – | – | – | – | – | – | – | 2.28
Danio rerio embryo [31], 0.02 µM | – | – | – | – | – | – | – | – | – | 1.96
Danio rerio embryo [31], 0.03 µM | – | – | – | – | – | – | – | – | – | 1.28
Danio rerio embryo [31], 0.0319628 µM | – | – | – | – | – | – | – | – | – | 4.8
Danio rerio embryo [31], 0.045 µM | – | – | – | – | – | – | – | – | – | 1.58
Danio rerio embryo [31], 0.0477056 µM | – | – | – | – | – | – | – | – | – | 5.09
Danio rerio embryo [31], 0.048 µM | – | – | – | – | – | – | – | – | – | 2.73
Danio rerio embryo [31], 0.064 µM | – | – | – | – | – | – | – | – | – | 2.5
Danio rerio embryo [31], 0.067 µM | – | – | – | – | – | – | – | – | – | 4.88
Danio rerio embryo [31], 0.0715584 µM | – | – | – | – | – | – | – | – | – | 6.17
Danio rerio embryo [31], 0.084 µM | – | – | – | – | – | – | – | – | – | 2.72
Danio rerio embryo [31], 0.087 µM | – | – | – | – | – | – | – | – | – | 4.84
Danio rerio embryo [31], 0.107 µM | – | – | – | – | – | – | – | – | – | 4.95

Reference: the supplement of paper PMC9013687
